Some test systems named below: SR leukemia; LOX IMVI melanoma; MDA-N; SNB-75 CNS; M14 melanoma; CCRF-CEM leukemia; RPMI-8226 leukemia; HT29 colon; ACHN renal; A498 renal; MDA-MB-231 breast; TK-10 renal; SF-268 CNS; SN12C renal; OVCAR-3 ovarian; OVCAR-5 ovarian; T-47D breast; RXF 393 renal; IGROV1 ovarian; NCI-H23 lung.
Experiment in all cases: NCI anticancer screen, dose series, 48 h

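48-hour exposure; five concentrations; linearly interpolated endpoints. TGI denotes the concentration required for complete inhibition of growth.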

In the case of `NS(=O)(=O)c1ccc(NNc2c3ccccc3nc3c(C(=O)Nc4ccc(S(N)(=O)=O)cc4)cccc23)cc1`, the TGI with SR leukemia was 57.9 µM; in the assay with LOX IMVI melanoma, 27.5 µM; in the assay with MDA-N, more than 100 µM; in the assay on SNB-75 CNS, more than 100 µM; with M14 melanoma, more than 100 µM; in the assay on CCRF-CEM leukemia, 80.3 µM. Also, the TGI in the assay on RPMI-8226 leukemia is more than 100 µM; with HT29 colon it was 72.4 µM; in the assay on ACHN renal it was more than 100 µM; in the assay on A498 renal, more than 100 µM; with MDA-MB-231 breast it was more than 100 µM; with TK-10 renal, more than 100 µM. Further, the TGI in the assay with SF-268 CNS was 98.4 µM; in the assay with SN12C renal it was more than 100 µM; with OVCAR-3 ovarian, more than 100 µM; in the assay on OVCAR-5 ovarian, more than 100 µM; in the assay on T-47D breast it was more than 100 µM; in the assay with RXF 393 renal, 64.5 µM. For the same compound, the TGI in the assay on IGROV1 ovarian and with NCI-H23 lung was more than 100 µM each time.

For `COc1ccc(Cc2nc3cc(C(F)(F)F)ccc3n2C[C@@H]2CCCN3CCCCC23)cc1` (stereo not given in full), the TGI in the assay with SR leukemia is more than 100 µM; in the assay on LOX IMVI melanoma, 24.9 µM; with MDA-N, 13.2 µM; in the assay on SNB-75 CNS, 77.4 µM; in the assay with M14 melanoma, 7.14 µM; with CCRF-CEM leukemia it was more than 44.5 µM. The TGI amounted to 94.8 µM with RPMI-8226 leukemia; 15.4 µM in the assay on HT29 colon; 22.5 µM with ACHN renal; 14.1 µM in the assay with A498 renal; 25.2 µM with MDA-MB-231 breast; 24.2 µM in the assay on TK-10 renal. Moreover, the TGI was 19 µM in the assay on SF-268 CNS; 22.3 µM in the assay on SN12C renal; 12.8 µM with OVCAR-3 ovarian; 27.8 µM with OVCAR-5 ovarian; 22.9 µM with T-47D breast; 22.3 µM with RXF 393 renal. The TGI worked out at 15.7 µM with IGROV1 ovarian and 30.9 µM with NCI-H23 lung.

With `O=C1OCC2=C1C(c1ccc(Cl)cc1)c1cc3c(cc1O2)OCO3` (stereo not given), the TGI with SR leukemia is more than 31.6 µM; in the assay on LOX IMVI melanoma, more than 100 µM; with MDA-N it was 3.9 µM; with SNB-75 CNS, more than 100 µM; in the assay with M14 melanoma, more than 100 µM; with CCRF-CEM leukemia, more than 100 µM. Besides, the TGI in the assay on RPMI-8226 leukemia, in the assay with HT29 colon, in the assay on ACHN renal, in the assay on A498 renal, with MDA-MB-231 breast and in the assay with TK-10 renal was more than 100 µM each time. For the same compound, the TGI in the assay with SF-268 CNS, with SN12C renal, in the assay with OVCAR-3 ovarian, in the assay with OVCAR-5 ovarian, in the assay on T-47D breast and with RXF 393 renal was more than 100 µM each time. Moreover, the TGI in the assay with IGROV1 ovarian and with NCI-H23 lung was more than 100 µM in each case.

In the case of `CC(C)CCNC(=O)c1ccc(CNC(=O)/C=C/c2ccc3c(c2)-c2ccccc2C3)cc1`, the TGI with SR leukemia is more than 100 µM; in the assay with LOX IMVI melanoma, more than 100 µM; with MDA-N, more than 100 µM; with SNB-75 CNS it was 53.3 µM; in the assay on M14 melanoma, more than 100 µM; in the assay on CCRF-CEM leukemia it was more than 100 µM. Moreover, the TGI with RPMI-8226 leukemia, in the assay with HT29 colon, with ACHN renal, with A498 renal, with MDA-MB-231 breast and in the assay with TK-10 renal was more than 100 µM throughout. In addition, the TGI in the assay on SF-268 CNS was more than 100 µM; in the assay with SN12C renal, more than 100 µM; in the assay on OVCAR-3 ovarian it was more than 100 µM; in the assay on OVCAR-5 ovarian it was more than 100 µM; in the assay with T-47D breast it was more than 100 µM; in the assay on RXF 393 renal, 82.6 µM. The TGI in the assay on IGROV1 ovarian and in the assay with NCI-H23 lung was more than 100 µM each time.

In the case of `CC(=O)O[C@H]1CC[C@@]2(C)C(=CC[C@@H]3[C@@H]2CC[C@]2(C)C(=O)/C(=C\c4ccccc4)C[C@@H]32)C1`, the TGI with SR leukemia, in the assay with LOX IMVI melanoma, in the assay on MDA-N, in the assay with SNB-75 CNS, with M14 melanoma and with CCRF-CEM leukemia was more than 100 µM throughout. The TGI in the assay with RPMI-8226 leukemia, in the assay with HT29 colon, in the assay with ACHN renal, in the assay on A498 renal, with MDA-MB-231 breast and in the assay on TK-10 renal was more than 100 µM in each case. The TGI with SF-268 CNS, in the assay on SN12C renal, with OVCAR-3 ovarian, in the assay on OVCAR-5 ovarian, in the assay on T-47D breast and in the assay with RXF 393 renal was more than 100 µM each time. In addition, the TGI in the assay on IGROV1 ovarian and in the assay on NCI-H23 lung was more than 100 µM in each case.

Regarding `COc1cc(Nc2nc(NS(=O)(=O)c3cc(C)c(Cl)cc3S)n[nH]2)cc(OC)c1OC`, the TGI with SR leukemia, with LOX IMVI melanoma, with MDA-N, with SNB-75 CNS, in the assay with M14 melanoma and in the assay on CCRF-CEM leukemia was more than 100 µM throughout. Further, the TGI in the assay on RPMI-8226 leukemia, in the assay with HT29 colon, in the assay on ACHN renal, with A498 renal, with MDA-MB-231 breast and in the assay on TK-10 renal was more than 100 µM throughout. The TGI in the assay on SF-268 CNS, in the assay on SN12C renal, in the assay on OVCAR-3 ovarian, with OVCAR-5 ovarian, in the assay with T-47D breast and in the assay with RXF 393 renal was more than 100 µM throughout. The TGI in the assay on IGROV1 ovarian and in the assay on NCI-H23 lung was more than 100 µM throughout.

The values are drawn from PubChem BioAssay (NCI).
